According to patent US12161722B2, “Bifunctional heterocyclic compound having BTK degradation function via ubiquitin proteasome pathway, and use thereof” (KOREA RESEARCH INSTITUTE OF CHEMICAL TECHNOLOGY, priority 2021, dated 2024):

Molecular target: T1, WT BTK protein (Homo sapiens, UniProt Q06187)
T1 construct: measured for intracellular BTK protein levels by Western blotting; endogenous in cells; host or cells: TMD-8 or RAMOS cells
Assay: BTK protein degradation assay (Western blotting), WT BTK
Type: cell-based
Settings: concentration range accounting for 50% degradation of WT BTK protein, TMD-8 or RAMOS cells, 24 hours
In short: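 BTK levels were read by Western blotting (GAPDH and β-actin normalisers) in RIPA lysates of TMD-8 cells exposed to compounds for 24 h at 1×10^6 cells/mL. Results scored in ranges of the concentration producing 50% loss of WT BTK.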

T1 sequence (Q06187 whole entry): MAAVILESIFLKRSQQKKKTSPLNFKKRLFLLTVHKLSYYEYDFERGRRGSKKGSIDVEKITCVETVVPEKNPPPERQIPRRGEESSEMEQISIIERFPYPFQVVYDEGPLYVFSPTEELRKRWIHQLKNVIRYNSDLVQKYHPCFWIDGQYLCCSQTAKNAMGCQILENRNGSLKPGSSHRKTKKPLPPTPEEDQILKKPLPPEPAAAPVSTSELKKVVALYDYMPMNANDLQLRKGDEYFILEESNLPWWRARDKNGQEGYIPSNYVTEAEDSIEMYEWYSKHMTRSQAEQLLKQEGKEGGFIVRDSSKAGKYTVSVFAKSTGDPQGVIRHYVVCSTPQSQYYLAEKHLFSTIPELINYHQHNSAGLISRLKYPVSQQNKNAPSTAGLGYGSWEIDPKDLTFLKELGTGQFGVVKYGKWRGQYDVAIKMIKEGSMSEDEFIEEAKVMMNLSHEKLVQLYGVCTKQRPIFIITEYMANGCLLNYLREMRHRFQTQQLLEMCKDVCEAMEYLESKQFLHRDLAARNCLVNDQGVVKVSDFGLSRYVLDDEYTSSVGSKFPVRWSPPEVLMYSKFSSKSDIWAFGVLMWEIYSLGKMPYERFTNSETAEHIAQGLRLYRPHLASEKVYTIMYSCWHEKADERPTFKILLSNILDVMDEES

Row | Structure (SMILES) | DC50 [nM]
1 | Cc1cccc(C)c1Nc1nn(C)c2nc(Nc3cnc(N4CCN(CC5CCN(c6ccc7c(c6)C(=O)N(C6CCC(=O)NC6=O)C7=O)CC5)CC4)nc3)ncc12 (centres unmarked) [Compound 171, 5-(4-((4-(5-((3-((2,6-Dimethylphenyl)amino)-1-methyl-1H-pyrazolo[3,4-d]pyrimidin-6-yl)amino)pyrimidin-2-yl)piperazin-1-yl)methyl)piperidin-1-yl)-2-(2,6-dioxopiperidin-3-yl)isoindoline-1,3-dione] | 0.1 to 10
2 | Cc1cccc(C)c1Nc1nn(C)c2nc(Nc3ccc4c(c3)CCN(CC3CCN(c5ccc6c(c5)C(=O)N(C5CCC(=O)NC5=O)C6=O)CC3)C4)ncc12 (centres unmarked) [Compound 172, 5-(4-((6-((3-((2,6-Dimethylphenyl)amino)-1-methyl-1H-pyrazolo[3,4-d]pyrimidin-6-yl)amino)-3,4-dihydroisoquinolin-2 (1H)-yl)methyl)piperidin-1-yl)-2-(2,6-dioxopiperidin-3-yl)isoindoline-1,3-dione] | 0.1 to 10
3 | Cc1cccc(C)c1Nc1nn(C)c2nc(Nc3ccc4c(c3)CCN(C[C@H]3CCN(c5ccc6c(c5)C(=O)N(C5CCC(=O)NC5=O)C6=O)C3)C4)ncc12 (stereo partly drawn) [Compound 173, 5-((R)-3-((6-((3-((2,6-Dimethylphenyl)amino)-1-methyl-1H-pyrazolo[3,4-d]pyrimidin-6-yl)amino)-3,4-dihydroisoquinolin-2 (1H)-yl)methyl)pyrrolidin-1-yl)-2-(2,6-dioxopiperidin-3-yl)isoindoline-1,3-dione] | 0.1 to 10
4 | Cc1cccc(C)c1Nc1nn(C)c2nc(Nc3ccc4c(c3)CCN(C[C@@H]3CCN(c5ccc6c(c5)C(=O)N(C5CCC(=O)NC5=O)C6=O)C3)C4)ncc12 (stereo partly drawn) [Compound 174, 5-((S)-3-((6-((3-((2,6-Dimethylphenyl)amino)-1-methyl-1H-pyrazolo[3,4-d]pyrimidin-6-yl)amino)-3,4-dihydroisoquinolin-2 (1H)-yl)methyl)pyrrolidin-1-yl)-2-(2,6-dioxopiperidin-3-yl)isoindoline-1,3-dione] | 0.1 to 10
5 | Cc1cccc(C)c1Nc1nn(C)c2nc(Nc3ccc4c(c3)CN(CC(O)CN3CCN(c5ccc6c(c5)C(=O)N(C5CCC(=O)NC5=O)C6=O)CC3)CC4)ncc12 (centres unmarked) [Compound 178, 5-(4-(3-(7-((3-((2,6-Dimethylphenyl)amino)-1-methyl-1H-pyrazolo[3,4-d]pyrimidin-6-yl)amino)-3,4-dihydroisoquinolin-2 (1H)-yl)-2-hydroxypropyl)piperazin-1-yl)-2-(2,6-dioxopiperidin-3-yl)isoindoline-1,3-dione] | 0.1 to 10
6 | Cc1cccc(C)c1Nc1nn(C)c2nc(Nc3ccc(N4CCN(CC5CN(c6ccc7c(c6)C(=O)N(C6CCC(=O)NC6=O)C7=O)C5)C[C@H]4C)cc3)ncc12 (stereo partly drawn) [Compound 184, 5-(3-(((R)-4-(4-((3-((2,6-Dimethylphenyl)amino)-1-methyl-1H-pyrazolo[3,4-d]pyrimidin-6-yl)amino)phenyl)-3-methylpiperazin-1-yl)methyl)azetidin-1-yl)-2-(2,6-dioxopiperidin-3-yl)isoindoline-1,3-dione] | 0.1 to 10
7 | Cc1cccc(C)c1Nc1nn(C)c2nc(Nc3ccc(N4CCN(CC5CN(c6ccc7c(c6)C(=O)N(C6CCC(=O)NC6=O)C7=O)C5)[C@@H](C)C4)cc3)ncc12 (stereo partly drawn) [Compound 185, 5-(3-(((S)-4-(4-((3-((2,6-Dimethylphenyl)amino)-1-methyl-1H-pyrazolo[3,4-d]pyrimidin-6-yl)amino)phenyl)-2-methylpiperazin-1-yl)methyl)azetidin-1-yl)-2-(2,6-dioxopiperidin-3-yl)isoindoline-1,3-dione] | 0.1 to 10
8 | Cc1cccc(C)c1Nc1nn(C)c2nc(Nc3ccc(N4CCN(CC5CN(c6ccc7c(c6)C(=O)N(C6CCC(=O)NC6=O)C7=O)C5)[C@H](C)C4)cc3)ncc12 (stereo partly drawn) [Compound 186, 5-(3-(((R)-4-(4-((3-((2,6-Dimethylphenyl)amino)-1-methyl-1H-pyrazolo[3,4-d]pyrimidin-6-yl)amino)phenyl)-2-methylpiperazin-1-yl)methyl)azetidin-1-yl)-2-(2,6-dioxopiperidin-3-yl)isoindoline-1,3-dione] | 0.1 to 10

Next, values leading:

Row | DC50 [nM] | Structure (SMILES)
9 | 0.1 to 10 | Cc1cccc(C)c1Nc1nn(C)c2nc(Nc3ccc(C4CCN(CC5CN(c6ccc7c(c6)C(=O)N(C6CCC(=O)NC6=O)C7=O)C5)CC4)cc3)ncc12 (centres unmarked) [Compound 169, 5-(3-((4-(4-((3-((2,6-Dimethylphenyl)amino)-1-methyl-1H-pyrazolo[3,4-d]pyrimidin-6-yl)amino)phenyl)piperidin-1-yl)methyl)azetidin-1-yl)-2-(2,6-dioxopiperidin-3-yl)isoindoline-1,3-dione]
10 | 0.1 to 10 | Cc1cccc(C)c1Nc1nn(C)c2nc(Nc3ccc(C4CCN(CC5CCN(c6ccc7c(n6)CN(C6CCC(=O)NC6=O)C7=O)CC5)CC4)cc3)ncc12 (centres unmarked) [Compound 170, 3-(2-(4-((4-(4-((3-((2,6-Dimethylphenyl)amino)-1-methyl-1H-pyrazolo[3,4-d]pyrimidin-6-yl)amino)phenyl)piperidin-1-yl)methyl)piperidin-1-yl)-5-oxo-5,7-dihydro-6H-pyrrolo[3,4-b]pyridin-6-yl)piperidin-2,6-one]
11 | 0.1 to 10 | Cc1cccc(C)c1Nc1nn(C)c2nc(Nc3ccc(C4CN(CC5CCN(c6ccc7c(c6)C(=O)N(C6CCC(=O)NC6=O)C7=O)CC5)C4)cc3)ncc12 (centres unmarked) [Compound 175, 5-(4-((3-(4-((3-((2,6-Dimethylphenyl)amino)-1-methyl-1H-pyrazolo[3,4-d]pyrimidin-6-yl)amino)phenyl)azetidin-1-yl)methyl)piperidin-1-yl)-2-(2,6-dioxopiperidin-3-yl)isoindoline-1,3-dione]
12 | 0.1 to 10 | Cc1cccc(C)c1Nc1nn(C)c2nc(Nc3ccc(C4CN(C[C@H]5CCN(c6ccc7c(c6)C(=O)N(C6CCC(=O)NC6=O)C7=O)C5)C4)cc3)ncc12 (stereo partly drawn) [Compound 176, 5-((R)-3-((3-(4-((3-((2,6-dimethylphenyl)amino)-1-methyl-1H-pyrazolo[3,4-d]pyrimidin-6-yl)amino)phenyl)azetidin-1-yl)methyl)pyrrolidin-1-yl)-2-(2,6-dioxopiperidin-3-yl)isoindoline-1,3-dione]
13 | 0.1 to 10 | Cc1cccc(C)c1Nc1nn(C)c2nc(Nc3ccc(C4CN(C[C@@H]5CCN(c6ccc7c(c6)C(=O)N(C6CCC(=O)NC6=O)C7=O)C5)C4)cc3)ncc12 (stereo partly drawn) [Compound 177, 5-((S)-3-((3-(4-((3-((2,6-Dimethylphenyl)amino)-1-methyl-1H-pyrazolo[3,4-d]pyrimidin-6-yl)amino)phenyl)azetidin-1-yl)methyl)pyrrolidin-1-yl)-2-(2,6-dioxopiperidin-3-yl)isoindoline-1,3-dione]
14 | 0.1 to 10 | Cc1cccc(C)c1Nc1nn(C)c2nc(Nc3ccc(N4CCN(C[C@H]5CCN(c6ccc7c(c6)C(=O)N(C6CCC(=O)NC6=O)C7=O)C5)CC4)cc3)ncc12 (stereo partly drawn) [Compound 179, 5-((R)-3-((4-(4-((3-((2,6-Dimethylphenyl)amino)-1-methyl-1H-pyrazolo[3,4-d]pyrimidin-6-yl)amino)phenyl)piperazin-1-yl)methyl)pyrrolidin-1-yl)-2-(2,6-dioxopiperidin-3-yl)isoindoline-1,3-dione]
15 | 0.1 to 10 | Cc1cccc(C)c1Nc1nn(C)c2nc(Nc3ccc(N4CCN(C[C@@H]5CCN(c6ccc7c(c6)C(=O)N(C6CCC(=O)NC6=O)C7=O)C5)CC4)cc3)ncc12 (stereo partly drawn) [Compound 180, 5-((S)-3-((4-(4-((3-((2,6-Dimethylphenyl)amino)-1-methyl-1H-pyrazolo[3,4-d]pyrimidin-6-yl)amino)phenyl)piperazin-1-yl)methyl)pyrrolidin-1-yl)-2-(2,6-dioxopiperidin-3-yl)isoindoline-1,3-dione]
16 | 0.1 to 10 | Cc1cccc(C)c1Nc1nn(C)c2nc(Nc3ccc(N4CCN(CC5CN(c6ccc7c(c6)C(=O)N(C6CCC(=O)NC6=O)C7=O)C5)CC4)cc3)ncc12 (centres unmarked) [Compound 181, 5-(3-((4-(4-((3-((2,6-Dimethylphenyl)amino)-1-methyl-1H-pyrazolo[3,4-d]pyrimidin-6-yl)amino)phenyl)piperazin-1-yl)methyl)azetidin-1-yl)-2-(2,6-dioxopiperidin-3-yl)isoindoline-1,3-dione]
17 | 0.1 to 10 | Cc1cccc(C)c1Nc1nn(C)c2nc(Nc3ccc(C4CN(CC5CN(c6ccc7c(c6)C(=O)N(C6CCC(=O)NC6=O)C7=O)C5)C4)cc3)ncc12 (centres unmarked) [Compound 182, 5-(3-((3-(4-((3-((2,6-Dimethylphenyl)amino)-1-methyl-1H-pyrazolo[3,4-d]pyrimidin-6-yl)amino)phenyl)azetidin-1-yl)methyl)azetidin-1-yl)-2-(2,6-dioxopiperidin-3-yl)isoindoline-1,3-dione]
18 | 0.1 to 10 | Cc1cccc(C)c1Nc1nn(C)c2nc(Nc3ccc(N4CCN(CC5CN(c6ccc7c(c6)C(=O)N(C6CCC(=O)NC6=O)C7=O)C5)C[C@@H]4C)cc3)ncc12 (stereo partly drawn) [Compound 183, 5-(3-(((S)-4-(4-((3-((2,6-Dimethylphenyl)amino)-1-methyl-1H-pyrazolo[3,4-d]pyrimidin-6-yl)amino)phenyl)-3-methylpiperazin-1-yl)methyl)azetidin-1-yl)-2-(2,6-dioxopiperidin-3-yl)isoindoline-1,3-dione]
19 | 0.1 to 10 | Cc1cccc(C)c1Nc1nn(C)c2nc(Nc3ccc(N4CCN(CC5CN(c6ccc7c(n6)CN(C6CCC(=O)NC6=O)C7=O)C5)CC4)cc3)ncc12 (centres unmarked) [Compound 187, 3-(2-(3-((4-(4-((3-((2,6-Dimethylphenyl)amino)-1-methyl-1H-pyrazolo[3,4-d]pyrimidin-6-yl)amino)phenyl)piperazin-1-yl)methyl)azetidin-1-yl)-5-oxo-5,7-dihydro-6H-pyrrolo[3,4-b]pyridin-6-yl)piperidin-2,6-one]
20 | 0.1 to 10 | Cc1cccc(C)c1Nc1nn(C)c2nc(Nc3ccc(N4CCN(CC5CCN(c6ccc7c(n6)C(=O)N(C6CCC(=O)NC6=O)C7=O)CC5)CC4)cc3)ncc12 (centres unmarked) [Compound 188, 3-(2-(4-((4-(4-((3-((2,6-Dimethylphenyl)amino)-1-methyl-1H-pyrazolo[3,4-d]pyrimidin-6-yl)amino)phenyl)piperazin-1-yl)methyl)piperidin-1-yl)-5-oxo-5,7-dihydro-6H-pyrrolo[3,4-b]pyridin-6-yl)piperidin-2,6-one]
